The text below walks through data of ChEMBL document CHEMBL3124910, “Discovery and structure-activity relationships study of novel thieno[2,3-b]pyridine analogues as hepatitis C virus inhibitors” (Bioorg Med Chem Lett, 2014).

A value given as a limit tells only on which side of the number the result lay.

The nature of series [1]: Cytotoxicity against human HuH7 cells after 72 hrs by MTT assay. The class given is cell-based, Huh-7. (Tetrazolium dyes change colour on reduction, which living cells bring about.)
The test system of the next series is Hepatitis C virus. Briefly: Antiviral activity against HCV genotype 1b infected in human HuH7 cells assessed as inhibition of viral RNA replication after 72 hrs by luciferase reporter gene assay. The settings on record: Huh-7, 72 h. The class given is functional, organism-based, Hepacivirus hominis. For orientation: Reporter assays use an easily measured gene product as a stand-in for the process of interest.

A short description of series [2]: Cytotoxicity against human HEK293 cells after 72 hrs by MTT assay. The class given is cell-based.
A short description of series [3]: Selectivity index, ratio of CC50 for human HuH7 cells to EC50 for HCV genotype 1b infected in human HuH7 cells. Also noted: species or system Huh-7.
The nature of series [4]: Cytotoxicity against human LO2 cells after 72 hrs by MTT assay. The class given is cell-based, L02.

Take `CCOC(=O)c1sc2nc(C3CC3)cc(C(F)(F)F)c2c1N`: in series [1], the CC50 (commonly the concentration giving 50% cytotoxicity) at 72 h was over 20 µM. Besides, the EC50 (commonly the concentration at which the effect is half-maximal) in the series with Hepatitis C virus is 6.8 µM.
The matching figures for `Nc1c(C(=O)N2CCSCC2)sc2nc(-c3ccccc3)cc(C(F)(F)F)c12`: over 20 µM and 7.2 µM.
For `Nc1c(C(=O)N2CCOCC2)sc2nc(-c3ccc(Cl)c(Cl)c3)cc(C(F)(F)F)c12`, in series [1], the CC50 at 72 h is over 20 µM. Moreover, the EC50 in the series with Hepatitis C virus was over 20 µM.
The compound `Nc1c(C(=O)N2CCC(=O)CC2)sc2nc(-c3ccccc3)cc(C(F)(F)F)c12` registered a half-maximal cytotoxic concentration (CC50) at 72 h in series [1] of over 20 µM. For the same compound, the EC50 in the series on Hepatitis C virus is over 20 µM.
`COc1ccccc1-c1cc(C(F)(F)F)c2c(N)c(C(N)=O)sc2n1` registered a CC50 at 72 h in series [1] of over 20 µM. In the series on Hepatitis C virus, the EC50 came out at 14.3 µM.
The matching figures for `Nc1c(C(=O)N2CCOCC2)sc2nc(C3CC3)cc(C(F)(F)F)c12`: over 20 µM and 9.7 µM.
On to `Nc1c(C(=O)N2CCn3c(nnc3C(F)(F)F)C2)sc2nc(-c3ccccc3)cc(C(F)(F)F)c12`, for which the results for the CC50 at 72 h in series [2], in series [1] and in series [4] were 28 µM, 45.2 µM and 40.7 µM, respectively. The “Ratio CC50/EC50” value in series [3] turned out to be 13.7. The EC50 in the series on Hepatitis C virus was 3.3 µM.
For the compound `Nc1c(C(=O)N2CCOCC2)sc2nc(-c3cnccn3)cc(C(F)(F)F)c12`, the CC50 at 72 h in series [1] is over 20 µM. Also, the EC50 in the series with Hepatitis C virus was over 20 µM.
Compound `Nc1c(C(=O)NCc2ccccc2)sc2nc(-c3ccccc3)cc(C(F)(F)F)c12` registered a CC50 at 72 h in series [1] of over 20 µM. In addition, the EC50 in the series on Hepatitis C virus is over 20 µM.
Turning to `Nc1c(C(=O)N2CCOCC2)sc2nc(-c3cccs3)cc(C(F)(F)F)c12`, in series [1], the CC50 at 72 h was over 20 µM. Besides, the EC50 in the series on Hepatitis C virus amounted to 6.5 µM.
The compound `Nc1c(C(=O)NCc2cccs2)oc2nc(-c3ccccc3)cc(C(F)(F)F)c12` had a CC50 at 72 h in series [1] of over 20 µM. Moreover, the EC50 in the series with Hepatitis C virus was determined as 9.8 µM.
As for `Nc1c(C(=O)N2CCOCC2)sc2nc(-c3ccccc3)cc(C(F)(F)F)c12`, the values for the CC50 at 72 h in series [2], in series [1] and in series [4] were 85.1 µM, over 100 µM and 94.4 µM, respectively. Further, the “Ratio CC50/EC50” value in series [3] is listed as over 30.3. In the series with Hepatitis C virus, the concentration giving a half-maximal response (EC50) came to 3.3 µM.
Take `CCOC(=O)c1oc2nc(-c3ccccc3)cc(C(F)(F)F)c2c1N`: the CC50 at 72 h in series [1] was over 20 µM. The EC50 with Hepatitis C virus came out at 6.8 µM.
On the same counts, the results for `Nc1c(C(=O)N2CCOCC2)sc2nc(-c3ccccc3F)cc(C(F)(F)F)c12` are over 20 µM and 17.6 µM.
With `CCOC(=O)c1sc2nc(-c3cccs3)cc(C(F)(F)F)c2c1N`, in series [1], the CC50 at 72 h was over 20 µM. Moreover, the EC50 in the series with Hepatitis C virus amounted to 10 µM.
For the compound `NC(=O)c1sc2nc(-c3ccccc3)cc(C(F)(F)F)c2c1N`, in series [1], the CC50 at 72 h is over 20 µM. Besides, the EC50 in the series with Hepatitis C virus worked out at 8.2 µM.
In series [1], `Cc1cc(-c2ccccc2)nc2sc(C(=O)N3CCOCC3)c(N)c12` showed a CC50 at 72 h of over 20 µM. Further, the EC50 in the series on Hepatitis C virus worked out at 5.8 µM.
For the compound `CN1CCN(C(=O)c2sc3nc(-c4ccccc4)cc(C(F)(F)F)c3c2N)CC1`, in series [1], the CC50 at 72 h was over 20 µM. For the same compound, the EC50 in the series with Hepatitis C virus came to 11.4 µM.
With `Nc1c(C(=O)N2CCOCC2)oc2nc(-c3ccccc3)cc(C(F)(F)F)c12`, in series [1], the CC50 at 72 h is over 20 µM. Moreover, the EC50 with Hepatitis C virus came out at 11.2 µM.
On the same counts, the results for `Nc1c(C(=O)N2CCOCC2)sc2nc(-c3ccco3)cc(C(F)(F)F)c12` are over 20 µM and 9.6 µM.
Compound `Nc1c(C(=O)N2CCOCC2)sc2nc(-c3nccs3)cc(C(F)(F)F)c12` yielded a CC50 at 72 h in series [1] of over 20 µM. Besides, the EC50 in the series with Hepatitis C virus was found to be 8.9 µM.
Take `CCOC(=O)c1sc2nc(-c3ccccc3)cc(C(F)(F)F)c2c1N`: the CC50 at 72 h in series [1] is over 20 µM. In addition, the EC50 with Hepatitis C virus was found to be 19.3 µM.
In the case of `O=C(c1cc2c(C(F)(F)F)cc(-c3ccccc3)nc2s1)N1CCOCC1`, the CC50 at 72 h was 92.6 µM in series [2], over 100 µM in series [1] and over 100 µM in series [4]. Besides, the “Ratio CC50/EC50” value in series [3] is over 22.2. Besides, the EC50 in the series on Hepatitis C virus was determined as 4.5 µM.
`Nc1c(C(=O)N2CCOCC2)sc2nc(-c3cccc(F)c3)cc(C(F)(F)F)c12` returned a CC50 at 72 h in series [1] of over 20 µM. Also, the EC50 with Hepatitis C virus stood at 6.7 µM.
The matching figures for `Nc1c(C(=O)O)sc2nc(-c3ccccc3)cc(C(F)(F)F)c12`: over 20 µM and over 20 µM.
With `Nc1c(C(=O)N2CCCCC2)sc2nc(-c3ccccc3)cc(C(F)(F)F)c12`, the CC50 at 72 h in series [1] is over 20 µM. The EC50 in the series on Hepatitis C virus was found to be 5.9 µM.
On the same counts, the results for `Nc1c(C(=O)N2CCOCC2)sc2nc(-c3ccccc3)ccc12` are over 20 µM and 17.2 µM.
For `NC(=O)c1sc2nc(C3CC3)cc(C(F)(F)F)c2c1N`, the CC50 at 72 h in series [1] was over 20 µM. Also, the EC50 in the series on Hepatitis C virus was determined as 12.2 µM.
`Nc1c(C(=O)N2CCNCC2)sc2nc(-c3ccccc3)cc(C(F)(F)F)c12` showed a CC50 at 72 h in series [1] of over 20 µM. The EC50 in the series with Hepatitis C virus is 9.6 µM.
The matching figures for `COc1cccc(-c2ccc3c(N)c(C(N)=O)sc3n2)c1`: under 0.4 µM and over 20 µM.
Regarding `Nc1c(C(=O)N2CCOCC2)sc2nc3c(c(C(F)(F)F)c12)CCc1ccccc1-3`, the results for the CC50 at 72 h in series [2], in series [1] and in series [4] were 72.7 µM, over 100 µM and over 100 µM, respectively. Besides, the “Ratio CC50/EC50” value in series [3] was over 25.6. The EC50 in the series on Hepatitis C virus stood at 3.9 µM.
The compound `Nc1c(C(=O)N2CCOCC2)sc2nc(-c3ccc(F)cc3)cc(C(F)(F)F)c12` returned a CC50 at 72 h in series [1] of over 20 µM. The EC50 with Hepatitis C virus is 18.6 µM.
On the same counts, the results for `COc1ccc(-c2ccc3c(N)c(C(N)=O)sc3n2)cc1` are under 0.4 µM and over 20 µM.
On the same counts, the results for `COc1ccc(-c2cc(C(F)(F)F)c3c(N)c(C(=O)N4CCOCC4)sc3n2)cc1` are over 20 µM and 10.3 µM.
`CCOC(=O)c1oc2nc(-c3cccs3)cc(C(F)(F)F)c2c1N` returned a CC50 at 72 h in series [1] of over 20 µM. In addition, the EC50 in the series with Hepatitis C virus was 18.5 µM.
The matching figures for `CC(C)(C)OC(=O)N1CCN(C(=O)c2sc3nc(-c4ccccc4)cc(C(F)(F)F)c3c2N)CC1`: over 20 µM and over 20 µM.
The matching figures for `COc1ccccc1-c1ccc2c(N)c(C(N)=O)sc2n1`: over 20 µM and over 20 µM.
The matching figures for `CCOC(=O)c1sc2nc(-c3ccco3)cc(C(F)(F)F)c2c1N`: over 20 µM and 5.7 µM.
Turning to `Nc1c(C(=O)NCc2cccs2)sc2nc(-c3ccccc3)cc(C(F)(F)F)c12`, the CC50 at 72 h in series [1] was over 20 µM. Also, in the series on Hepatitis C virus, the EC50 is 8.2 µM.
The matching figures for `Nc1c(C(=O)N2CCc3sccc3C2)sc2nc(-c3ccccc3)cc(C(F)(F)F)c12`: over 20 µM and 12.5 µM.
The matching figures for `CN(C)C(=O)c1sc2nc(-c3ccccc3)cc(C(F)(F)F)c2c1N`: over 20 µM and 8.2 µM.
On the same counts, the results for `Nc1c(C(=O)NC2CCCC2)sc2nc(-c3ccccc3)cc(C(F)(F)F)c12` are over 20 µM and 5.5 µM.
In the case of `COc1cccc(-c2cc(C(F)(F)F)c3c(N)c(C(=O)N4CCOCC4)sc3n2)c1`, the CC50 at 72 h in series [1] was over 20 µM. Further, in the series on Hepatitis C virus, the EC50 is 10.8 µM.
On the same counts, the results for `COc1ccccc1-c1cc(C(F)(F)F)c2c(N)c(C(=O)N3CCOCC3)sc2n1` are over 20 µM and 8.3 µM.
For the compound `CCN(CC)C(=O)c1sc2nc(-c3ccccc3)cc(C(F)(F)F)c2c1N`, the half-maximal cytotoxic concentration (CC50) at 72 h in series [2], in series [1] and in series [4] was over 100 µM each time. The “Ratio CC50/EC50” value in series [3] is over 28.6. Besides, the EC50 in the series on Hepatitis C virus was 3.5 µM.
